Among the data in patent US11236086B2, “Substituted pyrrolopyridines as inhibitors of activin receptor-like kinase” (BLUEPRINT MEDICINES CORPORATION, priority 2017, dated 2022) are IC50 values, retold here.

pIC50: −log10 of the molar value.

For experiment [1], the target named is T1, ALK2R206H (mutant ALK2, N-terminally tagged with GST) (Homo sapiens, UniProt Q04771, R206H).
T1 construct: purchased Carna Bioscience or ThermoFisher 09-148 or PV6232
T1 sequence (Q04771 21-509 R206H): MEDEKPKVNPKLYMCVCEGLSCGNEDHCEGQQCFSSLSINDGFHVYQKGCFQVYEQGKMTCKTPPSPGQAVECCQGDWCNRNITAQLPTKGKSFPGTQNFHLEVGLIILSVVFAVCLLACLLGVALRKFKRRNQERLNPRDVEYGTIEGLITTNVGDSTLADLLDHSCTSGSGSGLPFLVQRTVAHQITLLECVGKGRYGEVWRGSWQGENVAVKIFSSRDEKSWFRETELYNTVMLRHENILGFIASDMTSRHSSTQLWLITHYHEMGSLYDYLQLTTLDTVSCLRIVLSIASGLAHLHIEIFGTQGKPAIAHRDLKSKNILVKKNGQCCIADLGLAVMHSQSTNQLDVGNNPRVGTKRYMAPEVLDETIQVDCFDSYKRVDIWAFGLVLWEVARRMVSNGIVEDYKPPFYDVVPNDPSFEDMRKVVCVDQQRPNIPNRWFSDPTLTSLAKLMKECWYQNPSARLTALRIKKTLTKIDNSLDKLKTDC
Nature of the experiment: ALK binding assay (LANTHASCREEN TR-FRET competitive binding, displacement of Kinase Tracer 178). The conditions noted are these: read-out: Binding Assay (IC50 class). Put shortly: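 Competitive displacement of Kinase Tracer 178 (50 nM) from N-terminally GST-tagged mutant ALK2 R206H (2-5 nM) by compound, detected by TR-FRET with Eu-anti-GST antibody (4-10 nM). 30 min room temperature incubation, 1% DMSO final; normalized signal fitted to 4-parameter log dose response for IC50.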
A general note: In TR-FRET formats the signal depends on donor and acceptor labels being close together.

The target of a further experiment is T2, human ALK2 R206H (Homo sapiens, UniProt Q04771, R206H).
T2 construct: expressed in transfected cells; host or cells: HEK293 (ATCC CRL1573), lentivirus transduction, blasticidin selection
T2 sequence (Q04771 21-509 R206H): T1 sequence (Q04771 21-509 R206H)
Nature of the experiment: Cell-based ALK2-R206H cell activity assay (Smad1-Ser463/Ser465 phosphorylation by AlphaLISA in HEK293-ALK2-R206H cells). The conditions noted are these: phospho-Smad1 AlphaLISA, read-out: Cell Line (Cell Assay, IC50 class). The procedure, abridged:
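IC50 comes from a 10-point curve, scaled between DMSO and 1 μM LDN193189 controls, of lysate phospho-Smad1 (Ser463/465) measured by AlphaLISA. Compounds (top 10 μM or 1 μM, 3-fold steps, duplicates) were given 2-3 h to serum-starved HEK293 cells that stably express FLAG-tagged human ALK2 R206H.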
In general terms: Alpha assays give light when donor and acceptor beads are brought close together.

What is called pIC50 is the negative decadic logarithm of the IC50, by convention in mol/L. For `CCOC(=O)N1CCN(c2ccnc3[nH]c(-c4ccc([C@]5(O)CCOC5)cc4)cc23)CC1` [Compound 354], the figures for the pIC50 (in experiment [1]; on human ALK2 R206H) were at least 8.00 and at least 7.00, respectively.
In the same order, the values of `Cc1nc(-c2[nH]c3nccc(N4CCN(C(=O)OC5COC5)CC4)c3c2Cl)cs1` [Compound 344] are at least 8.00 and at least 7.00.
On to `O=C(O[C@H]1C[C@H](F)C1)N1CCN(c2ccnc3[nH]c(-c4cn(C(F)F)cn4)cc23)CC1` [Compound 345], for which the pIC50 in experiment [1] is at least 8.00; at human ALK2 R206H, at least 7.00.
As to `CC(C)c1ccc(-c2cc3c(N4CCN(C(=O)C5CC5)CC4)ccnc3[nH]2)cc1` [Compound 120], the figures for the pIC50 (in experiment [1]; on human ALK2 R206H) were at least 8.00 and 6.30 to 7.00, respectively.
With `N#Cc1c(-c2nc3c(s2)COCC3)[nH]c2nccc(N3CCN(C(=O)OCC(F)F)CC3)c12` [Compound 440], the pIC50 is at least 8.00 in experiment [1] and at least 7.00 at human ALK2 R206H.
In the same order, the values of `CCOC(=O)N1CCN(c2ccnc3[nH]c(-c4ccccn4)cc23)CC1` [Compound 7] are at least 8.00 and at least 7.00.
In the same order, the values of `O=C(O[C@H]1C[C@H](F)C1)N1CCN(c2ccnc3[nH]c(-c4ccc(C5(O)CCOCC5)cn4)cc23)CC1` [Compound 462] are at least 8.00 and at least 7.00.
Turning to `Cn1cc(-c2[nH]c3nccc(N4CCN(C(=O)C5CC5)CC4)c3c2Br)cn1` [Compound 320], the pIC50 in experiment [1] was at least 8.00; at human ALK2 R206H, 6.30 to 7.00.
In the same order, the values of `Cn1cc(-c2[nH]c3nccc(N4CCN(C(=O)OC5COC5)CC4)c3c2F)cn1` [Compound 178] are at least 8.00 and 6.30 to 7.00.
Regarding `N#Cc1ccc(-c2cc3c(N4CCN(C(=O)C5CC5)CC4)ccnc3[nH]2)cc1` [Compound 45], the pIC50 in experiment [1] was at least 8.00; at human ALK2 R206H, at least 7.00.
In the same order, the values of `CCOC(=O)N1CCN(c2ccnc3[nH]c(-c4cnn(C)c4)c(C)c23)CC1` [Compound 38] are at least 8.00 and at least 7.00.
In the same order, the values of `O=C(C1CC1)N1CCN(c2ccnc3[nH]c(-c4ccc(F)cc4)cc23)CC1` [Compound 19] are at least 8.00 and 6.30 to 7.00.
Take `O=C(O[C@H]1C[C@H](F)C1)N1CCN(c2ccnc3[nH]c(-c4nc5c(s4)COCC5)cc23)CC1` [Compound 416]: the pIC50 is at least 8.00 in experiment [1] and at least 7.00 at human ALK2 R206H.
For `CCOC(=O)N1CCN(c2ccnc3[nH]c(-c4cnn(C(C)C)c4)cc23)CC1` [Compound 96], the pIC50 in experiment [1] was at least 8.00; at human ALK2 R206H, at least 7.00.
In the same order, the values of `Cn1cc(-c2[nH]c3nccc(N4CCN(C(=O)OC5COC5)CC4)c3c2Br)cn1` [Compound 426] are at least 8.00 and 6.30 to 7.00.
As to `O=C(OC1COC1)N1CCN(c2ccnc3[nH]c(-c4cnn(C5CC5)c4)cc23)CC1` [Compound 219], the pIC50 was at least 8.00 in experiment [1] and at least 7.00 on human ALK2 R206H.
Take `O=C(COc1ccc(-c2cc3c(N4CCN(C(=O)C5CC5)CC4)ccnc3[nH]2)cc1)N1CCC1` [Compound 420]: the figures for the pIC50 (in experiment [1]; at human ALK2 R206H) were at least 8.00 and 6.30 to 7.00, respectively.
Consider `CCN1CCN(c2ccc(-c3cc4c(N5CCN(C(=O)C6CC6)CC5)ccnc4[nH]3)nc2)CC1` [Compound 424], for which the pIC50 in experiment [1] is at least 8.00; at human ALK2 R206H, at least 7.00.
For the molecule `Cc1nc(-c2cc3c(N4CCN(C(=O)OC5COC5)CC4)ccnc3[nH]2)co1` [Compound 102], the pIC50 in experiment [1] is at least 8.00; at human ALK2 R206H it was 6.30 to 7.00.
For the molecule `Cn1cc(-c2[nH]c3nccc(N4CCN(C(=O)[C@H]5C[C@H](C#N)C5)CC4)c3c2Cl)cn1` [Compound 299], the values for the pIC50 (in experiment [1]; at human ALK2 R206H) were at least 8.00 and at least 7.00, respectively.
Take `CCOC(=O)N1CCN(c2ccnc3[nH]c(-c4cc(C)n(C)n4)cc23)CC1` [Compound 39]: the values for the pIC50 (in experiment [1]; at human ALK2 R206H) were at least 8.00 and 6.30 to 7.00, respectively.
In the same order, the values of `Cc1nn(C)cc1-c1cc2c(N3CCN(C(=O)OC4COC4)CC3)ccnc2[nH]1` [Compound 151] are at least 8.00 and 6.30 to 7.00.
